Source: patent publication US6566371B2, “Intraperitoneal administration of adenosine for the treatment of prevention of gastrointestinal of systemic diseases” (University of Pittsburgh, priority 2000, dated 2003)
Like-named read-outs stand apart in the source and are kept apart here.

How the values were obtained:
[1] = Microdialysis of mesenteric vein and aortic arch during continuous peritoneal lavage with adenosine or AMP (Example 2)
Method: (§1) In all the examples adult male Sprague-Dawley rats were purchased from Charles River Laboratories (Wilmington, Mass.) and maintained in the University of Pittsburgh Animal Facility (Pittsburgh, Pa.). Rats were provided free access to Prolab Isopro RMH 3000 rodent diet (PMI Nutrition Intl., Richmond, Ind.) and tap water. Light cycle, relative humidity and room temperature were 7:00 AM to 7:00 PM, 55% and 22° C., respectively. Animals weighed 357±11 (mean±SEM) grams at the time of study.
(§2) Rats (n=5) were anesthetized and body temperature monitored and maintained as described for Example 1. The trachea was cannulated with PE-240 and a PE-50 catheter was inserted into the right jugular vein and an intravenous infusion of 0.9% saline was initiated at 50 μl/min. A femoral artery catheter (PE-50) was inserted and was connected to a digital blood pressure analyzer for continuous measurement of MABP and heart rate. Next, microdialysis probes (CMA/20 microdialysis probe 4 mm, Bioanalytical Systems, Inc., West Lafayette, Ind.) were inserted into the aortic arch (via the left carotid artery) and mesenteric vein. Microdialysis probes were perfused with 0.9% saline at 2 μl/min, and the dialysate exiting the probes was collected in a freezing apparatus. As in Example 1, a basin was constructed from the abdominal wall to create a bowl containing the viscera. However, unlike Example 1, instead of intermittent lavage with fresh solutions, the abdominal basin was continuously perfused with Tyrode's solution (5 ml/min) (Mi, Z., et al., J. Pharmacol. Exp. Ther. 287:926 (1998), the disclosure of which is incorporated herein by reference) that was maintained at 37° C. by a heated water bath. Thus, the viscera were submerged completely in Tyrode's solution that was constantly being replaced. After a 20-minute stabilization period, dialysate from the microdialysis probes was collected for 20 minutes. Next, the Tyrode's solution perfusing the peritoneal cavity was switched to prewarmed Tyrode's containing 10^−5 M adenosine (Sigma). After 10 minutes, the dialysate was collected for another 20 minutes. This procedure was repeated two more times as the concentration of adenosine was increased to 10^−4 M and finally to 10^−3 M. To determine whether AMP would behave as a “prodrug” for the delivery of adenosine, after a 20 minute washout period, the entire protocol was repeated with AMP (10^−5 M, 10^−4 M and 10^−3 M) (Sigma).
(§3) Statistical Analysis: Data were analyzed in this example by repeated measures 1-factor analysis of variance. […] Statistical analyses were conducted with NCSS software (Version 6.0; Kaysville, Utah), and the criterion of significance was p<0.05.
(§4) Sample Analysis: Levels of adenosine and its metabolites, inosine, hypoxanthine and xanthine, in the dialysate samples in this example were measured using an Isco (Lincoln, Nebr.) high-pressure liquid chromatographic system (pump model 2350, gradient programmer model 2360, 4.6×250-mm C18 column) with UV detection as described by Mi, Z., et al., J. Pharmacol. Exp. Ther. 273:728 (1995). The chromatography data system was JCL 6000 for Windows (Jones Chromatography LTD., Lakewood, Colo.).

[2] = rat, in vivo
Method: as §1, §2, §3, §4

[3] = system: rats subjected to hemorrhagic shock; test: Hemorrhagic shock and resuscitation with continuous peritoneal lavage (Example 3); assay type: in vivo, Sprague-Dawley rats
Method: The methods of the present invention are illustrated in more detail below. […] In a second study, microdialysis probes were placed in the mesenteric vein and aortic arch of rats, and the peritoneal cavity was continuously ravaged with adenosine or AMP solutions. In a third study, rats were subjected to hemorrhagic shock (2.75 ml of blood removed per 100 grams of body weight over a 15 minute period) for two hours, followed by volume resuscitation for one hour and observation for 72 hours. Rats received peritoneal lavage with adenosine or vehicle (0.9% saline) beginning 20 minutes after blood withdrawal and continuing through the one hour resuscitation period.
Hemorrhagic shock was induced by removing 2.75 ml of blood per 100 grams of body weight over a 15 minute period. Two hours after blood withdrawal, the animals were resuscitated by reinfusing the withdrawn blood and restoring and maintaining a normal blood pressure for one hour by infusing Ringer's solution (Baxter, Deerfield, Ill.) as needed. Beginning 20 minutes after blood withdrawal and continuing for one hour after reinfusion of the withdrawn blood, rats received either continuous peritoneal lavage with adenosine (10^−4 M) or 0.90% saline.

[4] = system: anesthetized rats with mesenteric vasoconstriction induced by angiotensin II plus methoxamine; test: Intraperitoneal lavage with adenosine during intramesenteric artery infusion of angiotensin II plus methoxamine (Example 1); assay type: in vivo, Sprague-Dawley rats
[5] = continuous peritoneal lavage with 10^-3 M
[6] = continuous peritoneal lavage with adenosine 10^-4 M
[7] = Group 2, period 7, 10^-3 M adenosine in peritoneal lavage fluid

With `Nc1ncnc2c1ncn2[C@@H]1O[C@H](COP(=O)(O)O)[C@@H](O)[C@H]1O` [AMP, adenosine-5′-monophosphate] the “purine levels in the aorta” value [1, 5] was “not in the aorta”, the “purine levels in the mesenteric vein” value [1, 5] was “increased purine levels in the mesenteric vein” and the MABP ([1]; during 10^-3 M in continuous peritoneal lavage, basal 113±5 (adenosine), 112±4 (AMP), not significantly affected) was 117±7 mm Hg. It also gave a heart rate ([1]; during 10^-3 M in continuous peritoneal lavage, basal 351±15 (adenosine), 357±17 (AMP), not significantly affected) of 366±22 beats/min.
With `Nc1ncnc2c1ncn2[C@@H]1O[C@H](CO)[C@@H](O)[C@H]1O` [adenosine] the “adenosine level in dialysate exiting mesenteric vein microdialysis catheter” value ([2]; male, Sprague-Dawley) was 2.17 ± 0.60 µM, the “hypoxanthine level in dialysate exiting mesenteric vein microdialysis catheter” value ([2]; male, Sprague-Dawley) was 0.18 ± 0.04 µM and the “inosine level in dialysate exiting mesenteric vein microdialysis catheter” value ([2]; male, Sprague-Dawley) was 1.03 ± 0.32 µM. For the same compound, the “xanthine level in dialysate exiting mesenteric vein microdialysis catheter” value ([2]; male, Sprague-Dawley) was 0.26 ± 0.06 µM, the MABP [2] was 108±4 mm Hg and the heart rate [2] was 362±14 beats/min. The “levels of adenosine, inosine, hypoxanthine or xanthine in the aorta (dialysate)” value [2] was “did not significantly alter”, the “levels of adenosine, inosine, hypoxanthine or xanthine in the mesenteric vein (dialysate)” value [2] was “did not significantly alter” and the “arterial pH vs vehicle-treated group” value [3, 6] was “significantly (p<0.05) higher”. The “blood urea nitrogen vs vehicle-treated group” value [3, 6] was “significantly (p<0.05) lower”, the “plasma level of lactate vs vehicle-treated group” value [3, 6] was “significantly (p<0.05) lower” and the “plasma level of potassium vs vehicle-treated group” value [3, 6] was “significantly (p<0.05) lower”. The “survival to 72 hours” value ([3]; continuous peritoneal lavage with adenosine 10^-4 M, vehicle 4 of 10, p<0.05) was 9 of 10, the “MABP and heart rate vs vehicle-treated group” value ([3]; during hemorrhagic shock and resuscitation, adenosine 10^-4 M lavage) was “similar” and the heart rate ([4]; Group 2, increasing adenosine 10^-7 to 10^-3 M in lavage) was “not significantly different among the seven experimental periods”. For the same compound, the “MBF compared with period 1 (no infusion, no adenosine)” value [4, 7] was “not significantly different than the MBF during period 1”, the “MBF compared with period 2 (vasoconstrictors, no adenosine)” value [4, 7] was “significantly greater than the MBF during period 2” and the “mesenteric blood flow (MBF)” value ([4]; Group 2, periods 3-6, adenosine 10^-7 M to 10^-4 M in peritoneal lavage fluid, intermittent lavage) was “remained significantly depressed”. The “heart rate (bradycardia)” value ([4]; Group 3, 10^-3 M adenosine in peritoneal lavage fluid) was “did not cause bradycardia”, the MABP ([4]; Group 3, 10^-3 M adenosine, period 4 and period 5) was “very slight and transient increase” and the “MBF compared with period 1” value ([4]; Group 3, by period 7, fixed 10^-3 M adenosine in peritoneal lavage fluid) was “no longer significantly different compared with experimental period 1”. The “MBF compared with period 2” value ([4]; Group 3, periods 3-7, fixed 10^-3 M adenosine in peritoneal lavage fluid) was “significantly greater than MBF during period 2” and the “mesenteric blood flow (summary)” value ([4]; peritoneal lavage with adenosine, p<0.05) was “normalized mesenteric blood flow”.
